Assay results published in patent publication US20120046321A1, “METHODS OF TREATING ATRIAL FIBRILLATION WITH P38 INHIBITOR COMPOUNDS” (INTERMUNE, INC., priority 2005, published 2012).
“Also recorded” adds a separate entry of the source.

Key:
Format in all cases: in vivo, canine
TGF-β1 = assay: Western blot of atrial tissue; conditions: CHF+PFD vs CHF
[1] = system: canines with ventricular tachypacing (VTP)-induced congestive heart failure (CHF); assay: Echocardiographic monitoring of the VTP-induced CHF model (LV function, LA area, CHF signs); conditions: oral PFD 800 mg three times a day
Text: Briefly, 15 adult mongrel canines (weight 20 to 32 kgs) were divided into 3 groups (n=5 in each group) as follows: Group 1: Normal; Group 2: CHF canines not treated with PFD (or CHF); and Group 3: CHF canines treated with PFD (or CHF+PFD). […] The CHF and CHF+PFD canines underwent placement of a permanent single-chamber pacemaker with the pacing lead positioned in the right ventricular apex followed by radiofrequency catheter ablation of the AV junction to create complete heart block. Canines in the CHF and CHF+PFD groups underwent 3 weeks of VTP at a rate of 220 bpm. Oral PFD (800 mg three times a day) (InterMune, Brisbane, Calif.) was started 2 days prior to the initiation of VTP and was given for the full duration of the pacing period. The CHF and CHF+PFD groups underwent transesophageal echocardiography at the time of pacemaker implantation and at follow-up. Canines in the paced groups underwent weekly transthoracic echocardiography, weekly ECG monitoring to ensure right ventricular capture, and weekly physical examinations. CHF was established by clinical signs, such as, lethargy, peripheral edema, and mucous membrane color changes. Left atrial (LA) size was determined by measuring the LA area by planimetry from 2-D echocardiographic images during diastole from the 2-chamber views. Left ventricular (LV) systolic function was determined by measuring LV fractional shortening at the level of the papillary muscle. Two repeated measurements were made for LA area and LV fractional shortening and the mean value was used for analyses.

IL-10 = assay: Western blot of atrial tissue; conditions: 3 groups
TNF-α = assay: Western blot of atrial tissue; conditions: 3 groups
[2] = system: canines with ventricular tachypacing (VTP)-induced congestive heart failure (CHF); assay: Histologic study of atrial fibrosis (Sirius red)
Text: Briefly, 15 adult mongrel canines (weight 20 to 32 kgs) were divided into 3 groups (n=5 in each group) as follows: Group 1: Normal; Group 2: CHF canines not treated with PFD (or CHF); and Group 3: CHF canines treated with PFD (or CHF+PFD). […] The CHF and CHF+PFD canines underwent placement of a permanent single-chamber pacemaker with the pacing lead positioned in the right ventricular apex followed by radiofrequency catheter ablation of the AV junction to create complete heart block. Canines in the CHF and CHF+PFD groups underwent 3 weeks of VTP at a rate of 220 bpm. Oral PFD (800 mg three times a day) (InterMune, Brisbane, Calif.) was started 2 days prior to the initiation of VTP and was given for the full duration of the pacing period. At the conclusion of the EP study, the animals were euthanized. Atrial tissue samples were fixed in 10% neutral buffered formalin. The samples were processed, embedded in paraffin, and sectioned into 4- to 5-μm-thick sections. The sections were stained in either H&E, Masson's trichrome, or Sirius red. […] To quantify fibrosis, the red pixel content of digitized images (Sirius red-stained) was measured relative to the total tissue area (red and green pixels) with the Adobe Photoshop 7.0 software package. Areas containing blood vessels and perivascular interstitial cells were excluded from fibrosis quantification. […]

`Cc1ccc(=O)n(-c2ccccc2)c1` [PFD, 5-methyl-1-phenyl-2-(1H)-pyridone] was tested, and the “Expression of TGF-β1” value (TGF-β1) was “downregulation; also recorded: reduced”, the “LV fractional shortening after 3 weeks of VTP compared with baseline” value ([1]; CHF+PFD group, p<0.001 vs baseline) was −69±8% and the “CHF signs, CHF vs CHF+PFD” value ([1]; 3 weeks VTP) was “did not appear to be different”. The “Increase in LA area from baseline at each weekly time point, CHF vs CHF+PFD” value ([1]; 3 weeks VTP) was “similar”, the “Inter-group baseline and weekly LV fractional shortening, CHF vs CHF+PFD” value ([1]; 3 weeks VTP) was “similar” and the “Expression of IL-10” value (IL-10) was “unchanged; also recorded: not markedly different”. The “Expression of TNF-α” value (TNF-α) was “unchanged; also recorded: not markedly different”, the “LA interstitial fibrosis, histologic finding” value ([2]; Sirius red stained LA sections) was “significant attenuation” and the “Percentage LA fibrosis” value ([2]; Sirius red, p<0.002 vs. CHF group (15.4±2.3%), Normals 3.2±1.0%) was 8.3±3.0%.
